According to the supplement of paper PMC10307832:

compound: O=C(O)C(Cc1ccccc1[N+](=O)[O-])=NNc1nc(-c2ccc(Cl)c(Cl)c2)cs1 (mixture of isomers) [4EGI-1] + Nc1nc2[nH]cc(CCc3ccc(C(=O)N[C@@H](CCC(=O)O)C(=O)O)cc3)c2c(=O)[nH]1 [Pemetrexed] (partner 0.2 µM); assay: relative viability (nuclei count vs DMSO), 5 days (fraction); higher = more cells survive; settings: first compound 0.5 µM
Outline: (§1)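 Dosing by pin tool came one day after lung cancer cell lines were seeded in 1536-well plates, using either one drug or a fixed anchor-drug dose plus five library-drug doses (not always all listed) in √10 steps. After 5 days, nuclei were counted on 4× images. Relative viability is treated-well nuclei count divided by vehicle-well nuclei count, and values are medians of duplicate plates.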

Cell Line	relative viability
201T	0.338
A-427	0.982
BEN	0.814
CAL-12T	1.21
COR-L23	0.223
COR-L 105	1.2
ChaGo-K-1	0.26
EKVX	0.418
EMC-BAC-2	0.418
EPLC-272H	0.372
H3255	0.598
HARA	0.266
HCC-15	0.231
HCC-44	0.609
HCC-78	0.911
HCC-366	0.154

Cell Line	relative viability
HCC-827	0.27
HOP-62	0.342
LC-2-ad	0.301
LCLC-97TM1	0.181
LCLC-103H	0.443
LK-2	0.303
LOU-NH91	0.431
NCI-H358	0.177
NCI-H522	0.948
NCI-H650	0.966
NCI-H661	0.939
NCI-H1563	0.905
NCI-H1648	0.728
NCI-H2342	0.884
SW 900	0.496

same assay, conditions: first compound 1.581 µM

Cell Line	relative viability
201T	0.368
BEN	0.785
COR-L23	0.189
COR-L 105	0.996
ChaGo-K-1	0.266
EPLC-272H	0.304
H3255	0.574
HARA	0.273
HCC-15	0.22
HCC-44	0.634
HCC-366	0.18
HCC-827	0.232
HOP-62	0.389
LC-2-ad	0.28
LCLC-103H	0.409
NCI-H358	0.187
NCI-H522	0.981
NCI-H661	0.834
NCI-H1563	0.221
NCI-H1648	0.782
NCI-H2342	0.723
SW 900	0.513

same assay, conditions: first compound 5 µM

Cell Line	relative viability
201T	0.387
A-427	0.99
BEN	0.772
CAL-12T	1.25
COR-L23	0.194
COR-L 105	1.14
ChaGo-K-1	0.269
EKVX	0.407
EMC-BAC-2	0.466
EPLC-272H	0.322
H3255	0.524
HARA	0.333
HCC-15	0.204
HCC-44	0.549
HCC-78	0.916
HCC-366	0.184

Cell Line	relative viability
HCC-827	0.269
HOP-62	0.362
LC-2-ad	0.287
LCLC-97TM1	0.195
LCLC-103H	0.474
LK-2	0.336
LOU-NH91	0.387
NCI-H358	0.178
NCI-H522	1.07
NCI-H650	1.06
NCI-H661	0.92
NCI-H1563	0.968
NCI-H1648	0.745
NCI-H2342	0.813
SW 900	0.485

same assay, conditions: first compound 15.81 µM

Cell Line	relative viability
201T	0.334
A-427	0.838
BEN	0.622
CAL-12T	1.14
COR-L23	0.204
COR-L 105	0.905
ChaGo-K-1	0.267
EKVX	0.325
EMC-BAC-2	0.482
EPLC-272H	0.29
H3255	0.453
HARA	0.238
HCC-15	0.198
HCC-44	0.584
HCC-78	0.892
HCC-366	0.147
HOP-62	0.311
LC-2-ad	0.258
LCLC-97TM1	0.165
LCLC-103H	0.435
LK-2	0.289
LOU-NH91	0.435
NCI-H358	0.174
NCI-H522	1.06
NCI-H650	0.973
NCI-H661	0.761
NCI-H1563	0.747
NCI-H1648	0.643
NCI-H2342	0.978
SW 900	0.405

same assay, conditions: first compound 50 µM

Cell Line	relative viability
201T	0.348
A-427	0.228
BEN	0.432
CAL-12T	0.86
COR-L23	0.215
COR-L 105	0.98
ChaGo-K-1	0.265
EKVX	0.368
EMC-BAC-2	0.323
EPLC-272H	0.245
H3255	0.395
HARA	0.223
HCC-15	0.212
HCC-44	0.593
HCC-78	0.972
HCC-366	0.111

Cell Line	relative viability
HCC-827	0.228
HOP-62	0.318
LC-2-ad	0.257
LCLC-97TM1	0.114
LCLC-103H	0.477
LK-2	0.179
LOU-NH91	0.481
NCI-H358	0.165
NCI-H522	0.718
NCI-H650	0.725
NCI-H661	0.334
NCI-H1563	0.81
NCI-H1648	0.689
NCI-H2342	0.702
SW 900	0.136

compound: CN1CCN(CC1)C2=CC(=C(C=C2)NC3=NC=C4C(=N3)N(C5=CC=CC=C5C(=O)N4C)C)OC [XMD8-85] + CC1(C)CCC(c2ccc(Cl)cc2)=C(CN2CCN(c3ccc(C(=O)NS(=O)(=O)c4ccc(N[C@H](CCN5CCOCC5)CSc5ccccc5)c(S(=O)(=O)C(F)(F)F)c4)cc3)CC2)C1 [Navitoclax] (partner 0.5 µM); assay: as above; settings: first compound 0.08 µM
Outline: as §1

Cell Line	relative viability
201T	1.2
A549	1.33
A-427	0.993
BEN	0.0618
CAL-12T	1.18
